Assays:
[1] = system: ginsenoside glycosidases from A. niger; assay: Hydrolysis of ginsenosides with crude ginsenoside glycosidases from A. niger, products measured by TLC; assay type: biochemical, Aspergillus niger; conditions: pH 5, 30° C., 18 hours
Protocol: Aspergillus niger FFCCDL-48 g was cultured in a medium containing 1% ginseng extracts and 3% wheat bran extracts at 30° C. for 54 hours. Cells were removed by centrifugation, after which (NH4)2SO4 powder was added to 2000 ml of the cell-free supernatant with stirring to 65% saturation. The solution was stored overnight at 4° C. and precipitated proteins were collected by centrifugation, resuspended in 80 ml of distilled water and dialyzed against 0.01M acetate buffer pH 5. Insolubles were removed by centrifugation, and the solution was adjusted to 200 ml with 0.01 M acetate buffer pH 5. The crude enzyme solution may be used to hydrolyze ginsenosides or to purify the enzymes.
100 mg each of ginsenosides Rb1, Rb2, Rc and Rd and 10 mg of ginsenoside Rg3 were dissolved in separate tubes containing 10 ml of 0.01M acetate buffer pH 5. 10 ml of the crude enzyme solution obtained in 1.1 was added to each tube and allowed to react at 30° C. for 18 hours. Then 10 ml of n-butanol was added to stop the reactions. The products were measured by thin layer chromatography (TLC) (Silica gel 60-F254, Merck; chloroform:methanol:water 70:30:5).
Experiments were carried out to explore the effects of temperature, pH, metal ions and reaction time on the enzyme reaction, in order to further characterize the enzymes.
100 mg of ginsenoside Rb1 was used in a reaction under the conditions as described in 1.2 and the effect of temperature was shown in Table 2.

[2] = system: Cellulose β-glucosidase of Clostridium and Bacillus (EC 3.2.1.21); assay: Comparison: hydrolysis of ginsenosides with cellulose β-glucosidase of Clostridium and Bacillus; assay type: biochemical, Clostridium thermocopiriae and Bacillus sp. AX; conditions: substrate 0.5%, pH 5.0, 30° C., 18 hours
Source text: To observe the differences between the ginsenoside glycosidases of the invention and known exo-cellulases, the ginsenoside glycosidases of the invention were compared with cellulose β-glucosidase (E.C. 3.2.1.21) in two reactions with 0.5% ginsenosides Rb1 or Rd as substrate.
Cellulose β-glucosidases (EC 3.2.1.21) from Clostridium thermocopiriae and Bacillus sp. AX cannot hydrolyze any glycosides of ginsenosides. The cellulose β-glucosidase from almond slightly hydrolyzes the C-20 glycoside of Rb1, Rb2 and Rc to give ginsenoside Rd, but it cannot hydrolyze the glucoside at C-3. Ginsenoside glycosidase II is similar to cellulose β-glucosidase from almond, but it only slightly hydrolyzes Rd. The properties of ginsenoside glycosidase III are totally different from those of cellulose β-glucosidases.

[3] = system: bacterial ginsenoside glycosidases; assay: Hydrolysis of Rd with ginsenoside glycosidases from bacteria; assay type: biochemical, Bacillus sp. JF; conditions: 0.5% Rd in acetate buffer containing 20% ethanol, 70° C., 16 hours
Protocol: Thermophilic and aerobic Bacillus sp. JF (Fengxie Jin et al., J. Gen. Appl. Microbiol., 36, 415-434, 1990) was cultured with aeration and stirring in a medium containing 0.5% by weight of ginseng extracts, 1% by weight of wheat bran extracts and 0.3% tryptone with a pH of 7.2 at 60° C. for 36 hours. Cells were removed by centrifugation and 3000 ml of 95% ethanol was added to 1000 ml of the cell-free supernatant. The solution was allowed to stand at 4° C. overnight and then centrifuged to collect the pellets. The enzyme protein pellets were dissolved in 50 ml of 0.01M acetate buffer pH 5. Insoluble materials were removed by centrifugation and a crude enzyme solution was obtained.
10 ml of the enzyme solution was allowed to react with 10 ml of 0.5% Rd in acetate buffer containing 20% ethanol at 70° C. for 16 hours. […] The enzymes can also hydrolyze β-(1→2)-glucoside of Rg3 to give Rh2.

How did the “Percentage of C—K in the reaction product” value [1] turn out when CC(C)=CCC[C@](C)(O[C@@H]1O[C@H](CO)[C@@H](O)[C@H](O)[C@H]1O)[C@H]1CC[C@]2(C)[C@@H]1[C@H](O)C[C@@H]1[C@@]3(C)CC[C@H](O[C@@H]4O[C@H](CO)[C@@H](O)[C@H](O)[C@H]4O[C@@H]4O[C@H](CO)[C@@H](O)[C@H](O)[C@H]4O)C(C)(C)[C@@H]3CC[C@]12C [Rd, ginsenoside Rd] was run?
The value was 25%.

And the “Percentage of F2 in the reaction product” value [1]?
The value was 50%.

What about the “Percentage of Rd in the reaction product” value [1] of the same compound?
Its value is 15%.

And the “Percentage of Rh2 in the reaction product” value [1]?
The value was 5%.

And the “Percentage of aglycone in the reaction product” value [1]?
Its value is 5%.

And the “Percentage of Rb1 in the reaction product” value [2]?
The value was 100%.

And the “Rd converted to ginsenoside F2” value [3]?
The value was 60%.
